The results in this text go back to PubChem BioAssay (NCI).

Molecules are shown by their SMILES.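 Grown in 96-well plates, cells were treated for 48 hours with each compound at five concentrations. Insufficient inhibition: endpoint recorded as highest concentration tested. GI50: concentration for 50% inhibition of growth. TGI is the concentration that stops growth completely.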

The test system of the first test is SK-MEL-28 melanoma. Briefly: NCI-60 cell line screen, 48 h.
Compound `C/C(=N\Nc1nc2ccccc2s1)c1ccc2ccccc2n1` had a TGI above 100 µM.

`O=[N+]([O-])/C(Cl)=C(\NCCN/C(C(Cl)=C(Cl)Cl)=C(/Cl)[N+](=O)[O-])C(Cl)=C(Cl)Cl` displayed a TGI above 100 µM.

As for `CC1(C)CC(C#Cc2ccccc2)CC(C)(C)N1O`, the TGI was 32.8 µM.

The compound `CCNc1ncnc2sc(SCc3ccccc3)nc12` displayed a TGI above 100 µM.

In turn, `CC1(C)N=C2C(=O)c3c([nH]c4ccccc34)[C@]3(C)CCC1CC23` (stereo partly drawn) displayed a TGI above 6.25 µM.

The compound `CCN1C(=O)C(=C/C=C/c2ccc(N(CC)CC)cc2)C(=O)N(CC)C1=S` had a TGI above 100 µM.

In turn, `COc1ccc(NC(C)c2ccncc2)cc1` (stereo not drawn) had a TGI above 100 µM.

Compound `C/C(=C\CO)CC/C=C(\C)CNc1ccc([N+](=O)[O-])cc1` came in with a TGI above 100 µM.

Regarding `CC(C)=CCC[C@@H](C)C1=C(O)C(N)=C(C)C(=O)C1=O`, the TGI is above 100 µM.

In turn, `c1ccc(C2CC(=NC3CCCCC3)Nc3ccccc3N2)cc1` (stereo not drawn) showed a TGI above 100 µM.

The subject of the next test is UACC-62 melanoma. Briefly: NCI-60 cell line screen, 48 h.
`COc1cc2[nH]c(-c3ccccc3)cc(=O)c2c(OC)c1OC` yielded a TGI above 100 µM.

`CCOP(=O)(OCC)OC1CC(n2cc(C)c(=O)n(C)c2=O)OC1CO[Si](C)(C)C(C)(C)C` (stereo not drawn) displayed a TGI above 100 µM.

With `COc1ccc(N2C(=O)C3c4[nH]c5ccccc5c4C4CCCCCCCCCC4C3C2=O)cc1` (stereo not drawn), the TGI is above 10 µM.

`COc1cccc2c1OCC1Cc3ccccc3OC21` (stereo not drawn): the TGI is above 100 µM.

`CC(C)C(N)C(=O)NC(CCC(=O)NCCCCC(N)C(=O)NCCCNc1ccc([N+](=O)[O-])c2[nH]c3ccccc3c(=O)c12)C(N)=O` (stereo not drawn) had a TGI above 100 µM.

Compound `CC#CC(O)(C(=O)OC1CC(C)N(C)C(C)(C)C1)C1CCCC1` (stereo not drawn) registered a TGI above 100 µM.

Compound `CC1(C)OC2COC3([C@@H]4OC(C)(C)O[C@@H]4CO)OC(C)(C)OC3C2O1` (stereo partly drawn) registered a TGI above 100 µM.

In turn, `COc1cc(/C=C2\CCC(C)/C(=C\c3cc(OC)c(OC)c(OC)c3)C2=O)cc(OC)c1OC` (stereo not drawn) showed a TGI of 6.89 µM.

The compound `COC(=O)[C@H](Cc1ccccc1)NC(=O)N(CCC#N)CCN(C(=O)N[C@@H](Cc1ccccc1)C(=O)OC)c1ccccc1` returned a TGI of 13.6 µM.

Turning to `Nc1nc(Nc2ccccc2)sc1C(=O)c1ccco1`, the TGI is 40.1 µM.

For `Cc1cc(NS(=O)(=O)c2ccc(NC(NC(=O)C(C(F)(F)F)C(F)(F)F)(C(F)(F)F)C(F)(F)F)cc2)no1`, the TGI is above 100 µM.

Take `C/C(=N\Nc1nc2ccccc2s1)c1ccc2ccccc2n1`: the TGI was above 100 µM.

`O=[N+]([O-])/C(Cl)=C(\NCCN/C(C(Cl)=C(Cl)Cl)=C(/Cl)[N+](=O)[O-])C(Cl)=C(Cl)Cl` yielded a TGI above 100 µM.

Take `CC1(C)CC(C#Cc2ccccc2)CC(C)(C)N1O`: the TGI is 42.5 µM.

In turn, `CCN1C(=O)C(=C/C=C/c2ccc(N(CC)CC)cc2)C(=O)N(CC)C1=S` returned a TGI above 100 µM.

The compound `C/C(=C\CO)CC/C=C(\C)CNc1ccc([N+](=O)[O-])cc1` had a TGI above 100 µM.

For `CC(=O)Oc1c(C)c(C)c2c(c1C)CCC(C)(CC(=O)OCCCCCCCCCCC[P+](c1ccccc1)(c1ccccc1)c1ccccc1)O2` (stereo not drawn), the GI50 is 0.291 µM and the TGI stood at 0.982 µM.

`CC(C)=CCC[C@@H](C)C1=C(O)C(N)=C(C)C(=O)C1=O` had a TGI above 93.4 µM.

As to `c1ccc(C2CC(=NC3CCCCC3)Nc3ccccc3N2)cc1` (stereo not drawn), the TGI is above 100 µM.

In a further test the test system is NCI-H522 lung. Briefly: NCI-60 cell line screen, 48 h.
Compound `COc1cc2[nH]c(-c3ccccc3)cc(=O)c2c(OC)c1OC` gave a TGI above 100 µM.

`CCOP(=O)(OCC)OC1CC(n2cc(C)c(=O)n(C)c2=O)OC1CO[Si](C)(C)C(C)(C)C` (stereo not drawn) returned a TGI above 100 µM.

Turning to `COc1ccc(N2C(=O)C3c4[nH]c5ccccc5c4C4CCCCCCCCCC4C3C2=O)cc1` (stereo not drawn), the TGI was above 10 µM.

For the compound `COc1cccc2c1OCC1Cc3ccccc3OC21` (stereo not drawn), the TGI is above 100 µM.

With `CC#CC(O)(C(=O)OC1CC(C)N(C)C(C)(C)C1)C1CCCC1` (stereo not drawn), the TGI is above 100 µM.

Regarding `C/C(=N\Nc1nc2ccccc2s1)c1ccc2ccccc2n1`, the TGI was above 100 µM.

Turning to `CCNc1ncnc2sc(SCc3ccccc3)nc12`, the TGI was above 100 µM.

Compound `CC1(C)N=C2C(=O)c3c([nH]c4ccccc34)[C@]3(C)CCC1CC23` (stereo partly drawn) yielded a TGI above 6.25 µM.

For `COc1ccc(NC(C)c2ccncc2)cc1` (stereo not drawn), the TGI was above 100 µM.

On to `C/C(=C\CO)CC/C=C(\C)CNc1ccc([N+](=O)[O-])cc1`, for which the TGI turned out to be 66.8 µM.

Take `CC(=O)Oc1c(C)c(C)c2c(c1C)CCC(C)(CC(=O)OCCCCCCCCCCC[P+](c1ccccc1)(c1ccccc1)c1ccccc1)O2` (stereo not drawn): the GI50 is 0.21 µM and the TGI came out at 0.666 µM.

`c1ccc(C2CC(=NC3CCCCC3)Nc3ccccc3N2)cc1` (stereo not drawn) gave a TGI of 78.1 µM.

The test system of the next test is DU-145 prostate. The test can be described thus: NCI-60 cell line screen, 48 h.
Compound `COc1cc2[nH]c(-c3ccccc3)cc(=O)c2c(OC)c1OC` returned a TGI above 100 µM.

Compound `CCOP(=O)(OCC)OC1CC(n2cc(C)c(=O)n(C)c2=O)OC1CO[Si](C)(C)C(C)(C)C` (stereo not drawn) returned a TGI above 100 µM.

Regarding `COc1ccc(N2C(=O)C3c4[nH]c5ccccc5c4C4CCCCCCCCCC4C3C2=O)cc1` (stereo not drawn), the TGI is above 10 µM.

Take `COc1cccc2c1OCC1Cc3ccccc3OC21` (stereo not drawn): the TGI is above 100 µM.

`CC(C)C(N)C(=O)NC(CCC(=O)NCCCCC(N)C(=O)NCCCNc1ccc([N+](=O)[O-])c2[nH]c3ccccc3c(=O)c12)C(N)=O` (stereo not drawn) displayed a TGI above 100 µM.
